The values below are quoted from earlier work in patent US5595896A, “Expression of heterologous genes in transgenic plants and plant cells using plant asparagine synthetase promoters” (New York University, priority 1993, dated 1997).

Numbered stars: 1 amine (or outer) side, 2 acyl side, 3 side chain; on linkers, the order of the positions; unused ones are H or OH. Bridge positions count the residues as written; N and C are the ends. Square brackets hold non-standard residues; d marks the D form. Peptide text beside a SMILES is read from it. I, II: the chains in the order shown. Actinocin(9to1) = Cc1c2oc3c(C)ccc(C(=O)[*:1])c3nc-2c(C(=O)[*:2])c(N)c1=O; NMeV = CN[CH](C(=O)O)C(C)C; Sar = CNCC(=O)O

One data set concerns PLANT AS.
Conditions: not given
Turning to `CS(=N)(=O)CC[C@H](N)C(=O)O` (stereo partly drawn) [L-methionine-S-sulphoximine], the “Inhibition (%)” value is listed as 8.6%.

Still in this data set, the particulars now being: Asparagine analogues, 2 mM.
`CC(C(N)=O)C(N)C(=O)O` (racemic) [β-methyl-DL-asparagine]: the “Inhibition (%)” value was 55.1%.

For the molecule `N[C@@H](CS(N)(=O)=O)C(=O)O` [2-amino-2-carboxy-L-ethanesulphonamide], the “Inhibition (%)” value is 42.5%.

Regarding `[N-]=[N+]=CC(=O)C[C@H](N)C(=O)O` [5-diazo-4-oxo-L-norvaline], the “Inhibition (%)” value was 40.3%.

Turning to `CN[C@@H](CC(N)=O)C(=O)O` [N-α-methyl-L-asparagine], the “Inhibition (%)” value is 38.8%.

For the molecule `NC(=O)[C@H](O)[C@H](N)C(=O)O` [erythro-β-hydroxy-L-asparagine], the “Inhibition (%)” value was 59.5%.

Take `NC(=O)[C@@H](O)[C@H](N)C(=O)O` [threo β-hydroxy-L-asparagine]: the “Inhibition (%)” value is listed as 45.2%.

Take N-ethyl-L-asparagine: the “Inhibition (%)” value is on record as 47.2%.

Turning to N-methyl-L-asparagine, the “Inhibition (%)” value was 57.6%.

The data set is the same for the next values; noted with them: Aspartate analogues, 2 mM.
With `NC(=O)[C@H](N)[C@H](N)C(=O)O` (relative stereo) [meso-diaminosuccinamate], the “Inhibition (%)” value is on record as 50.6%.

As for `N[C@@H](CC(=O)CBr)C(=O)O` [5-bromo-4-oxo-L-norvaline], the “Inhibition (%)” value was 49.5%.

As to `N[C@@H](CC(=O)CCl)C(=O)O` [5-chloro-4-oxo-L-norvaline], the “Inhibition (%)” value is listed as 42.1%.

On to `N[C@H](C(=O)O)[C@@H](O)C(=O)O` [erythro β-hydroxy-L-aspartate], for which the “Inhibition (%)” value is on record as 65.4%.

With `C[C@@H](C(=O)O)[C@H](N)C(=O)O` [erythro β-methyl-L-aspartate], the “Inhibition (%)” value is on record as 51.4%.

With `C[C@H](C(=O)O)[C@H](N)C(=O)O` [threo β-methyl-L-aspartate], the “Inhibition (%)” value is reported as 58.4%.

The same data set, now with this note: Glutamine analogues, 5 mM.
For the molecule 2-hydroxyethyl-L-glutamine, the “Inhibition (%)” value is 31.1%.

For the molecule `NC(=O)CCCC(N)C(=O)O` (racemic) [DL-homoglutamine], the “Inhibition (%)” value was 42.4%.

Consider `NC(=O)CCC(NC(=O)OCc1ccccc1)C(=O)O` (racemic) [N-CBZ-DL-glutamine], for which the “Inhibition (%)” value was 30.5%.

Regarding `NC(=O)CC[C@@H](N)C(=O)O` [D-glutamine], the “Inhibition (%)” value is 14.8%.

In the case of `NC(=O)NC[C@H](N)C(=O)O` [L-albizziine], the “Inhibition (%)” value was 85.2%.

`[N-]=[N+]=CC(=O)OC[C@H](N)C(=O)O` [L-azaserine]: the “Inhibition (%)” value is 97.5%.

In the case of `NC(=O)CC[C@H](N)C(N)=O` [L-glutamate diamide], the “Inhibition (%)” value was 9.1%.

Turning to `CCOC(=O)CC[C@H](N)C(=O)O` [L-glutamate-γ-ethyl ester], the “Inhibition (%)” value is 23.6%.

For the molecule `COC(=O)CC[C@H](N)C(=O)O` [L-glutamate-γ-methyl ester], the “Inhibition (%)” value was 27.2%.

With `CC(=O)N[C@@H](CCC(N)=O)C(=O)O` [N-acetyl-L-glutamine], the “Inhibition (%)” value is recorded as 10.2%.

With `NC(=O)SC[C@H](N)C(=O)O` [S-carbamoyl-L-cysteine], the “Inhibition (%)” value is listed as 35.6%.

In the case of `C=C(C[C@H](N)C(=O)O)C(N)=O` [γ-methylene-L-glutamine], the “Inhibition (%)” value is on record as 20.4%.

Another data set relates to AS. To be noted: actinomycin D treatment, cotyledons of germinating cotton seedlings.
Turning to `Cc1c2oc3c(C)ccc(C(=O)NC4C(=O)NC(C(C)C)C(=O)N5CCCC5C(=O)N(C)CC(=O)N(C)C(C(C)C)C(=O)OC4C)c3nc-2c(C(=O)NC2C(=O)NC(C(C)C)C(=O)N3CCCC3C(=O)N(C)CC(=O)N(C)C(C(C)C)C(=O)OC2C)c(N)c1=O` (centres unmarked) [actinomycin D] (I: TVP[Sar][NMeV] / II: TVP[Sar][NMeV]; ester I:1-I:C, II:1-II:C; linker I:N-II:N via Actinocin(9to1); configuration not given here), the “induction of AS activity” value was “abolished”.

The test system of another data set is GS. The note with it: toxin produced by P. syringae, coinfected alfalfa plants.
Turning to `N[C@@H](CCC1(O)CNC1=O)C(=O)O` (stereo partly drawn) [Tabtoxinine β-lactam], the “GS activity inhibited by toxin” value is given as “severely inhibited”.
